For one assay, the target named is T1, mutant MGL (Homo sapiens, UniProt Q99685, L169S/L176S).
T1 sequence (Q99685 1-303 L169S/L176S): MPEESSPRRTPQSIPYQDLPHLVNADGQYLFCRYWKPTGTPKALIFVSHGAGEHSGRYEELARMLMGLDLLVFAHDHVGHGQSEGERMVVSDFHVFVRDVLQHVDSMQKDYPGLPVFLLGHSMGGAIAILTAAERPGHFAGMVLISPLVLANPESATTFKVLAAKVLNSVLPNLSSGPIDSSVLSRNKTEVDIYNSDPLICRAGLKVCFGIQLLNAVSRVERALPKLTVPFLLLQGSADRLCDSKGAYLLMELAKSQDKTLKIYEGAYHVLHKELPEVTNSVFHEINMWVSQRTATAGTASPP
The assay can be described thus: MGL ThermoFluor assay - mutant. Format: binding.

Assay [1] has as its target T2, purified wild type MGL (wt-MGLL 6H-11-313) (Homo sapiens, UniProt Q99685).
T2 sequence (Q99685 1-303): T1 sequence (Q99685 1-303 L169S/L176S) with S169L, S176L

[2] abbreviates: compound concentration measured by qNMR, read-out: MGL mutant ThermoFluor qKd (using qNMR conc.).
The mark [3] stands for this setting: ThermoFluor thermal stability binding assay, read-out: MGL mutant ThermoFluor Kd.
Where [4] appears, read: ThermoFluor, compound concentration measured by qNMR, read-out: MGL mutant ThermoFluor qKd (μM) (using qNMR conc.).
Where [5] appears, read: ThermoFluor concentration-response, read-out: MGL mutant ThermoFluor Kd.
Where [6] appears, read: ThermoFluor, compound concentration measured by qNMR, read-out: MGL mutant ThermoFluor qKd (using qNMR conc.).

Residue numbers refer to the chain shown, from its start. Where two headings read alike, the source gives them in different places.

In general, IC50 refers to the concentration that gives 50% inhibition. Read a high IC50 as a need for much substance.

Protocol for mutant MGL: The ThermoFluor (TF) assay is a 384-well plate-based binding assay that measures thermal stability of proteins^1,2. […] TF dye used in all experiments was 1,8-ANS (Invitrogen: A-47). Final TF assay conditions used for MGL studies were 0.07 mg/ml of mutant MGL, 100 μM ANS, 200 mM NaCl, 0.001% Tween-20 in 50 mM PIPES (pH=7.0).
Screening compound plates contained 100% DMSO compound solutions at a single concentration. […] Columns 12 and 24 were used as DMSO reference and contained no compound. […] Following compound dispension, protein and dye solutions were added to achieve the final assay volume of 3 μL.
Bar-coded assay plates were robotically loaded onto a thermostatically controlled PCR-type thermal block and then heated from 40 to 90° C. degrees at a ramp-rate of 1° C./min for all experiments. Fluorescence was measured by continuous illumination with UV light (Hamamatsu LC6), supplied via fiber optics and filtered through a band-pass filter (380-400 nm; >60D cutoff). Fluorescence emission of the entire 384-well plate was detected by measuring light intensity using a CCD camera (Sensys, Roper Scientific) filtered to detect 500±25 nm, resulting in simultaneous and independent readings of all 384 wells. A single image with 20-sec exposure time was collected at each temperature, and the sum of the pixel intensity in a given area of the assay plate was recorded vs temperature and fit to standard equations to yield the Tm^1. • 1.
For some experiments, quantitative NMR spectroscopy (qNMR) was used to measure concentration of the initial 100% DMSO compound solutions and, using the same fitting method, qKd values were determined

As to `Cc1nc2cc(C(=O)N3CC(N4CCN(C(=O)c5cscn5)CC4)C3)ccc2n1-c1ccc(F)cc1` [Cpd 1291], the Kd at mutant MGL (setting [2]) is 0.179 µM. In assay [1], this compound displayed an IC50 of 2780 nM.
`O=C(c1nccs1)N1CCN(C2CN(C(=O)c3cccc4oc(-c5ccc(Cl)cc5)nc34)C2)CC1` [Cpd 1220]: the Kd at mutant MGL (setting [3]) stood at 0.015 µM. The IC50 in assay [1] is 255 nM.
`O=C(c1ccc2c(cnn2-c2ccc(C(F)(F)F)cc2)c1)N1CC(N2CCN(C(=O)c3nccs3)CC2)C1` [Cpd 1080]: at mutant MGL (setting [4]), the Kd amounted to 0.006 µM. For the same compound, the IC50 in assay [1] was determined as 9 nM.
Turning to `O=C(c1ccc(-n2cnc3ccccc32)cc1)N1CCN(C2CN(C(=O)c3nccs3)C2)CC1` [Cpd 1298], the Kd at mutant MGL (setting [5]) amounted to 0.474 µM. For the same compound, the IC50 in assay [1] was determined as 3850 nM.
For `O=C(c1ccc2c(c1)CCN2C(=O)C1CC1)N1CC(N2CCN(C(=O)c3nccs3)CC2)C1` [Cpd 773] the same measures were 0.04 µM and 845 nM.
The corresponding values for `CCCCCCCCCCCCCCCCCCCC(=O)N1CC(N2CCN(C(=O)c3nccs3)CC2)C1` [Cpd 640] are 25 µM and 15900 nM.
The corresponding values for `Cc1nc2cc(C(=O)N3CC(N4CCN(C(=O)c5nccs5)CC4)C3)ccc2n1C1CCCCC1` [Cpd 732] are 0.002 µM and 239 nM.
With `O=C(Cn1ccc2cc(C(=O)N3CC(N4CCN(C(=O)c5nccs5)CC4)C3)ccc21)N1CCCC1` [Cpd 1035], the Kd on mutant MGL (setting [2]) was found to be 1.01 µM. For the same compound, inhibition in assay [1] was half-maximal at 4620 nM (IC50).
`COc1cc(-n2ccc3cc(C(=O)N4CC(N5CCN(C(=O)c6ccccc6)CC5)C4)ccc32)ccc1C#N` [Cpd 633]: the Kd on mutant MGL (setting [3]) is 0.157 µM. 62 nM corresponded to half-maximal inhibition in assay [1] (IC50).
Consider `O=C(c1ccc2c(ccn2-c2ccc(F)cc2)c1)N1CC(N2CCN(C(=O)C(F)(F)F)CC2)C1` [Cpd 1079, 1-(4-Fluorophenyl)-5-({3-[4-(trifluoroacetyl)piperazin-1-yl]azetidin-1-yl}carbonyl)-1H-indole], for which, on mutant MGL (setting [6]), the Kd amounted to 0.272 µM. In assay [1], this compound yielded an IC50 of 9 nM.
`O=C(c1ccc2c(c1)OCCCO2)N1CC(N2CCN(C(=O)c3nccs3)CC2)C1` [Cpd 770]: the Kd on mutant MGL (setting [6]) amounted to 1.13 µM. The same compound returned an IC50 in assay [1] of 740 nM.
On to `COCCOc1ccc(C(=O)N2CC(N3CCN(C(=O)c4nccs4)CC3)C2)cc1` [Cpd 782], for which the Kd at mutant MGL (setting [6]) worked out at 0.463 µM. This compound came in with an IC50 in assay [1] of 1070 nM.
With `O=C(c1ccccc1)N1CCN(C2CN(C(=O)c3cccc4[nH]c(-c5ccccc5Cl)nc34)C2)CC1` [Cpd 608], on mutant MGL (setting [3]), the Kd was 1.67 µM. In assay [1], this compound showed an IC50 of 4170 nM.
On to `O=C(c1cscn1)N1CCN(C2CN(C(=O)c3cc(-c4ccccc4)ccc3F)C2)CC1` [Cpd 1280], for which the Kd at mutant MGL (setting [5]) worked out at 6.42 µM. The same compound gave an IC50 in assay [1] of 1980 nM.
For `Cc1c(Cc2ccc(C(F)(F)F)cc2)cccc1C(=O)N1CC(N2CCN(C(=O)c3ccns3)CC2)C1` [Cpd 1014] the same measures were 0.903 µM and 257 nM.
On to `O=C(c1ccccn1)N1CCN(C2CN(C(=O)c3sc4cc(F)ccc4c3Cl)C2)CC1` [Cpd 810], for which the Kd on mutant MGL (setting [3]) was 0.29 µM. Further, the IC50 in assay [1] stood at 2140 nM.
Take `O=C(c1cc2ccc(-c3cccnc3F)cc2[nH]1)N1CC(N2CCN(C(=O)c3nccs3)CC2)C1` [Cpd 1244]: the Kd on mutant MGL (setting [4]) was determined as 0.589 µM. 463 nM corresponded to half-maximal inhibition in assay [1] (IC50).
Regarding `Cc1c(C(=O)N2CC(N3CCN(C(=O)c4nccs4)CC3)C2)c2ccccc2n1C` [Cpd 796], on mutant MGL (setting [5]), the Kd came out at 0.099 µM. The compound also registered an IC50 in assay [1] of 1530 nM.
On to `O=C(c1ccccc1)N1CCN(C2CN(C(=O)c3ccc(F)c(Cc4ccc(C(F)(F)F)cc4)c3)C2)CC1` [Cpd 563], for which the Kd at mutant MGL (setting [5]) is 2.11 µM. The IC50 in assay [1] was found to be 2490 nM.
For `Cc1nc(-c2ccncc2)sc1C(=O)N1CC(N2CCN(C(=O)c3nccs3)CC2)C1` [Cpd 1272], at mutant MGL (setting [6]), the Kd was 0.399 µM. In assay [1], this compound came in with an IC50 of 1610 nM.
Turning to `O=C(c1ccc(Oc2ccc(Cl)cn2)cc1)N1CC(N2CCN(C(=O)c3nccs3)CC2)C1` [Cpd 717], the Kd on mutant MGL (setting [5]) came to 0.067 µM. For the same compound, in assay [1], the IC50 is 147 nM.
Regarding `COc1cccc2c(C)c(C(=O)N3CC(N4CCN(C(=O)c5nccs5)CC4)C3)[nH]c12` [Cpd 760], the Kd at mutant MGL (setting [5]) worked out at 0.199 µM. In assay [1], this compound came in with an IC50 of 581 nM.
With `O=C(c1nccs1)N1CCN(C2CN(C(=O)c3cccc4oc(-c5ccccc5F)nc34)C2)CC1` [Cpd 1193], on mutant MGL (setting [3]), the Kd was found to be 0.017 µM. In assay [1], this compound showed an IC50 of 116 nM.
Turning to `O=C(c1ccc(-c2ccccc2)cc1)N1CC(N2CCN(C(=O)c3c[nH]c4ccccc34)CC2)C1` [Cpd 1308], the Kd at mutant MGL (setting [3]) is 2.06 µM. The compound also registered an IC50 in assay [1] of 9280 nM.
Take `O=C(c1cscn1)N1CC(N2CCN(C(=O)c3cc4nc(C(F)(F)F)ccc4[nH]3)CC2)C1` [Cpd 830]: the Kd on mutant MGL (setting [6]) was 1.96 µM. The compound also displayed an IC50 in assay [1] of 3940 nM.
On to `O=C(c1ccc2c(c1)[nH]c(=O)n2CCC(F)(F)F)N1CC(N2CCN(C(=O)c3cscn3)CC2)C1` [Cpd 944], for which, on mutant MGL (setting [5]), the Kd came out at 0.802 µM. In assay [1], this compound showed an IC50 of 7320 nM.
Consider `O=C(c1ccccc1)N1CCN(C2CN(C(=O)c3cccc4[nH]c(-c5ccc(Cl)cc5)nc34)C2)CC1` [Cpd 607], for which the Kd at mutant MGL (setting [3]) came out at 1 µM. The compound also displayed an IC50 in assay [1] of 2900 nM.
Regarding `O=C(c1ccc(-n2cc(-c3ccc(Cl)cc3)cn2)cc1)N1CC(N2CCN(C(=O)c3nccs3)CC2)C1` [Cpd 1334], the Kd at mutant MGL (setting [4]) was found to be 0.08 µM. Moreover, the IC50 in assay [1] is under 5 nM.
As to `O=C(Nc1ccc(C(=O)N2CC(N3CCN(C(=O)c4nccs4)CC3)C2)cc1)C1CCCCC1` [Cpd 709], the Kd on mutant MGL (setting [5]) stood at 0.015 µM. The same compound had an IC50 in assay [1] of 118 nM.
As for `O=C(c1ccccc1)N1CCN(C2CN(C(=O)c3ccc4c(cnn4-c4ccc(C(F)(F)F)cc4)c3)C2)CC1` [Cpd 575, 5-({3-[4-(Phenylcarbonyl)piperazin-1-yl]azetidin-1-yl}carbonyl)-1-[4-(trifluoromethyl)phenyl]-1H-indazole], on mutant MGL (setting [4]), the Kd worked out at 0.083 µM. Besides, the IC50 in assay [1] amounted to 51 nM.
For the compound `Cc1ccc(-n2ccc3cc(C(=O)N4CC(N5CCN(C(=O)c6nccs6)CC5)C4)ccc32)nc1` [Cpd 1073, 1-(5-Methylpyridin-2-yl)-5-({3-[4-(1,3-thiazol-2-ylcarbonyl)piperazin-1-yl]azetidin-1-yl}carbonyl)-1H-indole], the Kd at mutant MGL (setting [6]) worked out at 0.087 µM. The same compound returned a 50% inhibitory concentration (IC50) in assay [1] of 34 nM.
Take `Cc1nc2cc(C(=O)N3CC(N4CCN(C(=O)c5cscn5)CC4)C3)ccc2n1-c1ccc(F)c(F)c1` [Cpd 1264]: the Kd on mutant MGL (setting [2]) worked out at 0.251 µM. In assay [1], the IC50 amounted to 986 nM.
As to `O=C(c1cscn1)N1CCN(C2CN(C(=O)c3cc4nc(C(F)(F)F)ccc4[nH]3)C2)CC1` [Cpd 1450], the Kd at mutant MGL (setting [4]) was determined as 12.6 µM. In assay [1], this compound displayed an IC50 of over 16700 nM.
For the compound `O=C(c1cnc2cc(Cl)c(Cl)cc2c1)N1CC(N2CCN(C(=O)c3nccs3)CC2)C1` [Cpd 743], the Kd at mutant MGL (setting [6]) stood at 0.133 µM. This compound also showed an IC50 in assay [1] of 324 nM.
In the case of `O=C(c1ccc2c(ccn2-c2ccncc2)c1)N1CC(N2CCN(C(=O)c3nccs3)CC2)C1` [Cpd 1127, 1-Pyridin-4-yl-5-({3-[4-(1,3-thiazol-2-ylcarbonyl)piperazin-1-yl]azetidin-1-yl}carbonyl)-1H-indole], on mutant MGL (setting [6]), the Kd was 0.098 µM. In assay [1], this compound displayed an IC50 of 20 nM.
Regarding `O=C(c1ccc(-c2cccc(C(F)(F)F)c2)cc1)N1CCN(C2CN(C(=O)c3cocn3)C2)CC1` [Cpd 1258], the Kd at mutant MGL (setting [3]) is 0.02 µM. The same compound showed an IC50 in assay [1] of 829 nM.
For `O=C(c1ccc(OCc2cccc(Cl)c2)cc1)N1CC(N2CCN(C(=O)c3nccs3)CC2)C1` [Cpd 957] the same measures were 0.008 µM and under 5 nM.
As for `Cc1ccc2c(C(F)(F)F)c(C(=O)N3CC(N4CCN(C(=O)c5ccccc5)CC4)C3)sc2c1` [Cpd 510, 1-(1-{[6-Methyl-3-(trifluoromethyl)-1-benzothiophen-2-yl]carbonyl}azetidin-3-yl)-4-(phenylcarbonyl)piperazine], the Kd at mutant MGL (setting [5]) came to 0.068 µM. Further, the IC50 in assay [1] turned out to be 181 nM.
For `O=C(c1cc2ccc(-c3ccc(F)cc3)cc2[nH]1)N1CC(N2CCN(C(=O)c3nccs3)CC2)C1` [Cpd 1204], the Kd on mutant MGL (setting [4]) was determined as 0.249 µM. Besides, the IC50 in assay [1] was found to be 166 nM.
For `Cc1nc2cc(C(=O)N3CC(N4CCN(C(=O)c5cscn5)CC4)C3)ccc2n1CC(F)(F)F` [Cpd 858], the Kd at mutant MGL (setting [2]) amounted to 0.561 µM. Moreover, it took 8770 nM to reach half-maximal inhibition in assay [1] (IC50).
Consider `O=C(c1cc2ccc(C(F)(F)F)nc2[nH]1)N1CC(N2CCN(C(=O)c3nccs3)CC2)C1` [Cpd 799], for which the Kd at mutant MGL (setting [5]) turned out to be 0.661 µM. Moreover, the IC50 in assay [1] amounted to 1670 nM.
On to `Cc1nc2cc(C(=O)N3CC(N4CCN(C(=O)c5cscn5)CC4)C3)ccc2n1-c1ccc(C(F)(F)F)cc1` [Cpd 1289], for which the Kd on mutant MGL (setting [2]) is 0.13 µM. Besides, the IC50 in assay [1] was 2600 nM.
As for `O=C(c1ccc2nn(-c3cccc(OC(F)(F)F)c3)cc2c1)N1CC(N2CCN(C(=O)c3nccs3)CC2)C1` [Cpd 1376], the Kd at mutant MGL (setting [4]) was 0.013 µM. The compound also displayed an IC50 in assay [1] of under 5 nM.
For `O=C(c1ccc(-c2nc(-c3ccccc3Cl)cs2)cc1)N1CC(N2CCN(C(=O)c3nccs3)CC2)C1` [Cpd 1328], the Kd at mutant MGL (setting [5]) came to 0.002 µM. In assay [1], this compound had an IC50 of under 5 nM.
